The source of these data is patent publication US11865183B2, “Conjugates and conjugating reagents comprising a linker that includes at least two (−CH2—CH2—O—) units in a ring” (priority 2016, dated 2024).

The test system of assay [1] is Karpas 299 cells (CD30). Briefly: In vitro cell viability assay (Cell-Titer Glo), Karpas 299. Type of assay: cell-based, Human. The conditions noted are these: Karpas 299, 96 h treatment. From the text:
Viability was expressed as % of untreated cells and calculated using the following formula: […]

Assay [2] has as its system LNCaP cells (PSMA). Briefly: In vitro cell viability assay (Cell-Titer Glo), LNCaP. Type of assay: cell-based. The settings on record: 96 h treatment. From the text: (§1) Loss of tumour cell viability following treatment with cytotoxic drugs in vitro can be measured by growing cell lines in the presence of increasing concentrations of drug and quantifying the loss of proliferation or metabolic activity using Cell-Titer Glo® Luminescent reagent (Promega). The protocol for PSMA and CD30 overexpressing cell lines describes cell seeding, drug treatment and determination of the cell viability in reference to untreated cells based on ATP synthesis, which is directly correlated to the number of cells present in the well.
(§2) The cell lines listed in Table 2 were maintained following the suppliers' recommendations.
(§3) Adherent PSMA-positive LNCaP and C4-2 cells were detached with TrypLE and resuspended in complete medium. Cells were counted using disposable Neubauer counting chambers and cell density adjusted to 10×10^4 cells/mL for LNCaP and 2×10^4 cells/mL for C4-2, respectively. […]
(§4) The cell viability assay was carried out using the Cell-Titer Glo® Luminescence reagent, as described by the manufacturer's instructions, (Promega Corp. Technical Bulletin TB288; Lewis Phillips G. D, Cancer Res 2008; 68:9280-9290).
(§5) Luminescence was recorded using a Molecular Devices Spectramax i3x plate reader and data subsequently analysed using GraphPad Prism four parameter non-linear regression model. […]

The subject of assay [3] is C4-2 cells (PSMA). Description: In vitro cell viability assay (Cell-Titer Glo), C4-2. The settings on record: C4-2, 96 h treatment. The format is cell-based.
From the text: as §1, §2, §3, §4, §5

The test system of assay [4] is Karpas-299 cells (T-anaplastic large cell lymphoma, ALCL). Briefly: Karpas-299 mouse xenograft study. The format is in vivo, CB17-SCID mice. The conditions noted are these: single i.v. 1 mg/kg on day 12, groups of eight mice. As for the experimental part: Healthy female CB17-SCID mice (CBySmn.CB17-Prkdcscid/J, Charles River Laboratories) with an average body weight of 18.1 g were used for cell inoculation (Day 0). 24 to 72 h prior to tumour cell injection, the mice were γ-irradiated (1.44 Gy, ^60Co). The animals were maintained in SPF health status according to the FELASA guidelines in housing rooms under controlled environmental conditions.
Tumours were induced by subcutaneous injection of 10^7 Karpas-299 cells (T-anaplastic large cell lymphoma, ALCL) in 200 μL of RPMI 1640 into the right flank. Tumours were measured twice a week with calipers, and the volume was estimated using the formula: […]
Twelve days after tumour implantation (Day 12), the animals were randomised into groups of eight mice using Vivo manager® software (211 mm^3 mean tumour volume) and treatment was initiated. The animals from the vehicle group received a single intravenous (i.v.) injection of PBS. The treated groups were dosed with a single i.v. injection of ADC at 0.8 mg/kg, or Adcetris© (brentuximab vedotin) at 1 mg/kg.
Treatment tolerability was assessed by bi-weekly body weight measurement and daily observation for clinical signs of treatment-related side effects. Mice were euthanized when a humane endpoint was reached (e.g. 1,600 mm^3 tumour volume) or after a maximum of 9 weeks post-dosing. Asterisks within the graphs indicate where animals were euthanized. […]

“And” between values parts separate entries of the source, which are not always exact repeats. Equal entries are not always repeated. Non-standard residues stand in square brackets, D forms with d. Residues, ends and D or L forms follow the SMILES beside them. *: point of attachment. Dolaproine = CO[C@@H]([C@@H]1CCCN1)[C@@H](C)C(=O)O; Dil = CC[C@H](C)[C@H](NC)[C@@H](CC(=O)O)OC; X1 = C[C@@H](N*)[C@@H](O)c1ccccc1; NMeV = CN[C@H](C(=O)O)C(C)C

As to `CC[C@H](C)[C@@H]([C@@H](CC(=O)N1CCC[C@H]1[C@H](OC)[C@@H](C)C(=O)N[C@H](C)[C@@H](O)c1ccccc1)OC)N(C)C(=O)[C@@H](NC(=O)[C@@H](NC)C(C)C)C(C)C` [MMAE, monomethyl auristatin E] (H-[NMeV]V[Dil][Dolaproine]-X1), the IC50 in assay [1] is 0.15 nM and 0.2 nM; in assay [2], 2.14 nM; in assay [3] it was 0.71 nM.

Consider brentuximab vedotin [Adcetris®], for which the “Animals with tumour re-growth” value in assay [4] (after day 20) is on record as 7/8. Besides, in assay [4], the “Animals with no measureable tumour at end of study (day 71)” value is on record as 1/8.

The term IC50 denotes the concentration needed to halve the response being measured. Higher therefore signals weaker potency.
